Reference: ChEMBL document CHEMBL5247653, “Discovery of Clinical Candidate ACT-777991, a Potent CXCR3 Antagonist for Antigen-Driven and Inflammatory Pathologies” (J Med Chem, 2023)
pIC50: −log10 of the molar value. Values after ≈ are worked out from the molar mass of the structure shown. Active and inactive are the calls of the source. The rule behind the calls is not given here.

What was measured:
[1] = Oral bioavailability in Beagle dog at 2.5 mg/kg; type: ADME, organism-based, Canis lupus familiaris; details: in vivo
[2] = Cmax in Cynomolgus monkey at 1.0 mg/kg,iv or 1.25 mg/kg, po; type: ADME, organism-based, Macaca fascicularis; set-up: dose 1 mg/kg, route iv; details: in vivo
[3] = target: Solute carrier organic anion transporter family member 1B3 (Homo sapiens, UniProt Q9NPD5); assay: Inhibition of human OATP1B3; type: ADME
[4] = target: C-X-C chemokine receptor type 3 (Rattus norvegicus, UniProt Q9JII9); assay: Antagonist activity at CXCR3 in Wistar rat whole blood assessed as receptor internalization incubated for 30 mins in presence of CXCL10 by flow cytometric analysis; type: tissue-based
[5] = target: C-X-C chemokine receptor type 4 (Homo sapiens) (UniProt P61073); assay: Binding affinity to CXCR4 (unknown origin) at 10 uM by radioligand binding assay
CYP2D6 = CYP2D6 (Homo sapiens, UniProt P10635); assay: […] recombinant human CYP2D6 mediated drug metabolism in human liver microsomes assessed as intrinsic clearance at 1 uM incubated for 45 mins in presence of NADPH regenerating system by LC-MS/MS analysis; type: ADME, Microsome; details: recombinant human CYP2D6, read-out: CLH
[6] = target: T1, C-X-C chemokine receptor type 3 (Mus musculus) (UniProt O88410); assay: In vivo antagonist activity at CXCR3 in LPS-induced DBA/1 mouse model assessed as reduction in mouse CXCL10-mediated chemotaxis in CD8+ T cells at 0.006 microg/g, po bid preincubated for 3 days followed by LPS stimulation for 30 mins and measured after 3 days by flow cytometry; type: functional, organism-based; set-up: scale not given: the % may be the effect or the level left; details: T-cell, dose 0.006 µg/g, time 6.0 day
T1 sequence (whole entry): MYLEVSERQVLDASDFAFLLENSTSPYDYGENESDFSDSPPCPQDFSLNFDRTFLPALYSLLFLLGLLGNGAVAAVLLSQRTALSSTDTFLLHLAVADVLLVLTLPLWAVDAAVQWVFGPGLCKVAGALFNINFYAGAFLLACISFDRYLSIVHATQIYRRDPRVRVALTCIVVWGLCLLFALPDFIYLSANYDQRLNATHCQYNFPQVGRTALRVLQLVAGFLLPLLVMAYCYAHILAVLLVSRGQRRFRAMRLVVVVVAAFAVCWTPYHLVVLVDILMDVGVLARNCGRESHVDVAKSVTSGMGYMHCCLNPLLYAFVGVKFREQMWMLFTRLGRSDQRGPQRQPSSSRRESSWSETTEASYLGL

[7] = target: T2, C-X-C chemokine receptor type 3 (Homo sapiens, UniProt P49682); assay: Antagonist activity at CXCR3 in human whole blood assessed as receptor internalization incubated for 30 mins in presence of CXCL10 by flow cytometric analysis; type: tissue-based
T2 sequence (P49682 whole entry): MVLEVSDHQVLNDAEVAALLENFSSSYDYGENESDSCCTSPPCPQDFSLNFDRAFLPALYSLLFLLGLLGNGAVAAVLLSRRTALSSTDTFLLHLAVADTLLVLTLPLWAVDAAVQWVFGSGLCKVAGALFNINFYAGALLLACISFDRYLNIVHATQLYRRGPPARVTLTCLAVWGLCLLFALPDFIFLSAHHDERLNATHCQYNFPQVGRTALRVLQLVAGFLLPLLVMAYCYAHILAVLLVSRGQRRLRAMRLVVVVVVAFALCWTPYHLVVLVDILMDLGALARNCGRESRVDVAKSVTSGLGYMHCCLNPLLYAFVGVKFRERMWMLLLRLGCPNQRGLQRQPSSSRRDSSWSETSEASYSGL

Cytochrome P450 2C9 = Cytochrome P450 2C9 (Homo sapiens, UniProt P11712); assay: Time dependent inhibition of CYP2C9 (unknown origin); type: ADME
[8] = Tmax in Cynomolgus monkey at 1.0 mg/kg,iv or 1.25 mg/kg, po; type: ADME, organism-based, Macaca fascicularis; details: in vivo
[9] = Solubility of compound in FaSSIF at 37 degreeC; type: ADME
[10] = In vivo inhibition of hERG in guinea pig assessed as increase in QTc interval at 27 ug/ml, iv; type: toxicity, organism-based, Cavia porcellus; details: at 27 µg/mL
[11] = In vivo inhibition of hERG in dog assessed as increase in QTc interval at 24 ug/ml, iv; type: toxicity, organism-based, Canis lupus familiaris; details: at 24 µg/mL
[12] = Cardiotoxicity in human iPSC-derived cardiomyocytes assessed as slowing of spontaneous beating rate at 4.1 ug/ml; type: toxicity, cell-based; details: cardiac muscle cell, dose 4.1 µg/ml
[13] = Metabolic stability in rat hepatocytes assessed as intrinsic clearance per 10^6 cells at 1 uM by LC-MS/MS analysis; type: ADME, cell-based, Hepatocyte
[14] = In vivo inhibition of hERG in iv dosed dog assessed as change in QRS interval; type: toxicity, organism-based, Canis lupus familiaris
[15] = Metabolic stability in human hepatocyte assessed as M1 metabolite formation at 1 uM and measured upto 15 mins in presence of NADPH regenerating system by LC-MS/MS analysis; type: ADME, cell-based; details: hepatocytes, 0.25 h
[16] = target: fMet-Leu-Phe receptor (Homo sapiens) (UniProt P21462); assay: Binding affinity to FPR1 (unknown origin) at 10 uM by radioligand binding assay
[17] = Genotoxicity in Salmonella typhimurium TA98 at 5000 ug in presence of S9 fraction; type: toxicity, subcellular, Salmonella enterica subsp. enterica serovar Typhimurium; details: dose 5000 µg
[18] = Protein binding in human plasma assessed as fraction unbound at 20 ug/ml using 14C-labeled ligand by rapid equilibrium dialysis; type: ADME, cell-free; details: at 20 µg/mL
[19] = target: Chemerin-like receptor 1 (Homo sapiens) (UniProt Q99788); assay: Binding affinity to ChemR23 (unknown origin) at 10 uM by radioligand binding assay
[20] = Cmax in LPS-induced DBA/1 mouse plasma at 0.06 microg/g, po bid preincubated for 3 days followed by LPS stimulation for 30 mins and measured after 72 hrs by flow cytometry; type: ADME, organism-based; set-up: time 6 day, dose 0.06 µg/g, route po; details: 0.06 µg/g
[21] = In vivo inhibition of hERG in iv dosed dog assessed as increase in QTc interval; type: toxicity, organism-based, Canis lupus familiaris
[22] = Metabolic stability in human liver microsomes assessed as intrinsic clearance at 1 uM and measured upto 15 mins in presence of NADPH regenerating system by LC-MS/MS analysis; type: ADME, Microsome; details: read-out: CLH
[23] = Protein binding in human plasma assessed as fraction unbound at 1 uM incubated for 6 hrs by rapid equilibrium dialysis based LC-MS/MS analysis; type: ADME, cell-free
[24] = Metabolic stability in rat hepatocyte assessed as M1 metabolite formation at 1 uM and measured upto 15 mins in presence of NADPH regenerating system by LC-MS/MS analysis; type: ADME, cell-based; details: hepatocytes, 0.25 h
[25] = Induction of CYP3A4 mRNA upregulation in human hepatocytes upto 10 uM; type: ADME, cell-based, Hepatocyte
[26] = Drug excretion in urine of Wistar rat assessed as unchanged drug at 1 mg/kg, iv; type: ADME, organism-based; details: read-out: Drug excretion

Sequence of fMet-Leu-Phe receptor (Homo sapiens) (P21462 whole entry): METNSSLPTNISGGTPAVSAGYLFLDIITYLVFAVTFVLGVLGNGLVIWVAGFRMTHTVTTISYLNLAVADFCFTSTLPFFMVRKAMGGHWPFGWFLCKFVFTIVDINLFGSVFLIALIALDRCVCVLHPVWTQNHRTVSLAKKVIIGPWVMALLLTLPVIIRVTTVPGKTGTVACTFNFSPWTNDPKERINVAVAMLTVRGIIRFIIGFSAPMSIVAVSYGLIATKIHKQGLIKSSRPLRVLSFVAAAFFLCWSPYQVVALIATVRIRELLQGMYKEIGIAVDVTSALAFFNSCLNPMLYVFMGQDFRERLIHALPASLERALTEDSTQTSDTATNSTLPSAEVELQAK
Sequence of C-X-C chemokine receptor type 3 (Rattus norvegicus, UniProt Q9JII9) (Q9JII9 whole entry): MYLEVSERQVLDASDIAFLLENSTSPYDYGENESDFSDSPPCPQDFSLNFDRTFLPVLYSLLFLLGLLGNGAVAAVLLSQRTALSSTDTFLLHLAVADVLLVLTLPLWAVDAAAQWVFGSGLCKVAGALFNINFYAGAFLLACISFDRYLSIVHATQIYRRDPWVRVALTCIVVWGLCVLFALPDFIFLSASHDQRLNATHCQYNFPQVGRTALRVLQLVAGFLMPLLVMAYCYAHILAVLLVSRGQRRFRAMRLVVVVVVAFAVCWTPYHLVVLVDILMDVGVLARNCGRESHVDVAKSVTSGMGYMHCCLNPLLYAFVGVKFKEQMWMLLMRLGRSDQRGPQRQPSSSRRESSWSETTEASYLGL
Sequence of C-X-C chemokine receptor type 4 (Homo sapiens) (P61073 whole entry): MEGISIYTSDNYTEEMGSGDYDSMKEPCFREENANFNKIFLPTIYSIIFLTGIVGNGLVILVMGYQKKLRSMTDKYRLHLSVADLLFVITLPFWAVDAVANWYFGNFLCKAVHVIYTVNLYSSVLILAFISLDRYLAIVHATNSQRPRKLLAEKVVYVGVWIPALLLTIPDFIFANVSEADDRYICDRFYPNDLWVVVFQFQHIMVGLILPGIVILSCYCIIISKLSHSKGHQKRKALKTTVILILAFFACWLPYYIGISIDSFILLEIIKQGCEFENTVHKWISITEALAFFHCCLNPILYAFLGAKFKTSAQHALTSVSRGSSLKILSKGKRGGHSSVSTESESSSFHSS
Sequence of Chemerin-like receptor 1 (Homo sapiens) (Q99788 whole entry): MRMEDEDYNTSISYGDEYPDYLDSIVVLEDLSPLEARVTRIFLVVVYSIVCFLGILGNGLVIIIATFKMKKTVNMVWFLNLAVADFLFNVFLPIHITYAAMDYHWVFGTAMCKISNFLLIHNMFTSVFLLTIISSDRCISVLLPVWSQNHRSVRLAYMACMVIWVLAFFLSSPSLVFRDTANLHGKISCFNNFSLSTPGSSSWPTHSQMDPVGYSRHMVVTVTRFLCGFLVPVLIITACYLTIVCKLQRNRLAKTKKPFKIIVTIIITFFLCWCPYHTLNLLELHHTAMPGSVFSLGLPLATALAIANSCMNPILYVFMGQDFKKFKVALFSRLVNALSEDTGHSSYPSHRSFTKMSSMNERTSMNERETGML
Sequence of Cytochrome P450 2C9 (P11712 whole entry): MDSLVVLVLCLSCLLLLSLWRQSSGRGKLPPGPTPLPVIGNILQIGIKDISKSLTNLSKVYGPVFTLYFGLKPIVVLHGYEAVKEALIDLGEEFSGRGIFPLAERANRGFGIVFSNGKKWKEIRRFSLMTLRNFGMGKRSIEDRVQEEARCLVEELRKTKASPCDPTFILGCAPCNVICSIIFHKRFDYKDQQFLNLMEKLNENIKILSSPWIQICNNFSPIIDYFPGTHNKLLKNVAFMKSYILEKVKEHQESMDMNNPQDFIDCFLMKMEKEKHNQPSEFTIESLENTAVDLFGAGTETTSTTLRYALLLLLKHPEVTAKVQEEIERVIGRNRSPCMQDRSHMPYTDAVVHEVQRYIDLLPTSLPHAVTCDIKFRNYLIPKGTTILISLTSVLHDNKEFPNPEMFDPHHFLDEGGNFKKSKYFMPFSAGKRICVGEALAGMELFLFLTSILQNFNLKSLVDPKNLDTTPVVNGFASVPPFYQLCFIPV
Sequence of Solute carrier organic anion transporter family member 1B3 (Q9NPD5 whole entry): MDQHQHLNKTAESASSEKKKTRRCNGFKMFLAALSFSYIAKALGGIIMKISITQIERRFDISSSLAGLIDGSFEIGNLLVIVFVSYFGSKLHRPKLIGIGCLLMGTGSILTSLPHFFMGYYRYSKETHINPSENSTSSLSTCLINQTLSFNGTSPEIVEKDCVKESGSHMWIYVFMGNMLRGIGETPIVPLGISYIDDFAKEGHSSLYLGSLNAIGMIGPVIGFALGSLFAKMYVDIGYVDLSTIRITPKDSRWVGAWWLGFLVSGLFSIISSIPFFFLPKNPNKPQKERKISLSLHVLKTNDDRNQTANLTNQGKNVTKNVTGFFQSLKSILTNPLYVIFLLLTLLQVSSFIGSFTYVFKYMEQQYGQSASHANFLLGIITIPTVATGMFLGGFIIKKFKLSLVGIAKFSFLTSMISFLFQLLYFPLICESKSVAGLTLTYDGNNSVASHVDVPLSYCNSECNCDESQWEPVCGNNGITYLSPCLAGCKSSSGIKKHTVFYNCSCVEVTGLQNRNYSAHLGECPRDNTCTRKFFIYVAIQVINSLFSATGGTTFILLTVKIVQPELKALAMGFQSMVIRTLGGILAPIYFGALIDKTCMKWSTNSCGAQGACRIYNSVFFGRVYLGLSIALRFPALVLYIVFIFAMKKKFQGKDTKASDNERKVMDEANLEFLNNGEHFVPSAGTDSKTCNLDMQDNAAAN
Sequence of CYP2D6 (P10635 whole entry): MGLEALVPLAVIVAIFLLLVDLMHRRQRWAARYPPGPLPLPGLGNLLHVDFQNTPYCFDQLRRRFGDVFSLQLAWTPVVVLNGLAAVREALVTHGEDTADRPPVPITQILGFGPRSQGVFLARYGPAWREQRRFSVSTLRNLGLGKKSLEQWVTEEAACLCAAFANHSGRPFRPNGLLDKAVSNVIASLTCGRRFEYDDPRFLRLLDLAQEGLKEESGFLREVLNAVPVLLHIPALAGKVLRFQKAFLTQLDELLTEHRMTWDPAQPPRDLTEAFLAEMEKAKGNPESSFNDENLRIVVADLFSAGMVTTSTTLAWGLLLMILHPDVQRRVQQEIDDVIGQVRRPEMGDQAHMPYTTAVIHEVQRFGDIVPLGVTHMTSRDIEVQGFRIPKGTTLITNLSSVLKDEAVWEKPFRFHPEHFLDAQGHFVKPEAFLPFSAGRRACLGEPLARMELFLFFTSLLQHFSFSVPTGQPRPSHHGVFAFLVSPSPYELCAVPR

- bioavailability [1]: 89%
- Cmax [2]: 735 ng/mL
- inhibition (INH) [3]: Not Active
- pIC50 [4]: 6.54
- Activity [5]: inactive
- microsomal CLint at 1 µM (CYP2D6): < 0.04 µL/min/mg
- Activity [6]: 35%
- pIC50 [7]: 7.25
- pIC50 (Cytochrome P450 2C9): < 4.30
- Tmax [8]: 1.5 h
- solubility [9]: 718 µg/mL (≈ 1300 µM)
- CLH [13]: < 2 µL/min/mg
- Stability [15]: Unstable
- Activity [16]: inactive
- fraction unbound at 20 ug/ml [18]: 0.4
- Activity [19]: inactive
- Cmax [20]: 559 ng/mL
- microsomal CLint at 1 µM [22]: < 10 µL/min/mg
- fraction unbound at 6 h, 1 µM [23]: 0.23
- Stability [24]: Unstable
- Activity [25]: Not Active
- dose excreted [26]: 4.4%
SMILES: Cc1ncn(CC(=O)N2CCN(c3sc(C(F)(F)F)nc3-c3cnc(C(F)(F)F)nc3)C[C@H]2CCO)n1
- inhibition (INH) [10]: Toxic
- inhibition (INH) [11]: Toxic
- Activity [12]: Toxic
- inhibition (INH) [14]: Non-Toxic
- Activity [17]: Non-Toxic
- inhibition (INH) [21]: Toxic
